One series concerns Arach. hypog. As to the kind of experiment: preemergence treatment in the greenhouse, % damage. The class given is in vivo, Arachis hypogaea. From the text: (§1) The vessels employed were plastic flowerpots having a volume of 300 cm^3; the substrate was a sandy loam containing about 1.5% humus. The seeds of the test plants (see Table 1) were sown shallow, and separated according to species. In the case of Cyperus esculentus, pregerminated tubers were planted. In the preemergence treatment, the active ingredients were then immediately applied to the surface of the soil. They were suspended or emulsified in water as the vehicle, and sprayed through atomizing nozzles. After the agents had been applied, the vessels were lightly sprinkler-irrigated to set germination and growth going, and to activate the chemical agents. The vessels were then covered with transparent plastic hoods until the plants had taken root. This cover ensured uniform germination of the test plants (to the extent that this was not impaired by the chemicals), and prevented readily volatile substances from evaporating.
(§2) For postemergence treatment, the plants were first grown to a height of from 3 to 10 cm, depending on their habit, before treated. Hoods were not placed on the pots. The experiments were set up in the greenhouse, hotter areas (25° to 40° C.) being preferred for heat-loving species, and 15° to 30° C. for plants from moderate climates. The experiments were carried out for from 4 to 6 weeks. During this period the plants were tended and their reaction to the various treatments was assessed. The following tables contain the substances investigated, the application rates in kg/ha of active ingredient, and the test plant species. Assessments were made on a 0 to 100 scale, 0 denoting no damage or normal emergence, and 100 denoting no emergence or complete destruction of at least the visible plant parts.

The test system of another series is Solanum nigrum. As to the kind of experiment: preemergence treatment in the greenhouse, % damage. Format: in vivo. The method, boiled down:
(§3)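 Preemergence: active sprayed onto the soil surface immediately after sowing; pots sprinkler-irrigated and covered with transparent hoods until plants rooted. Postemergence: unhooded plants sprayed at 3–10 cm. Both run 4–6 weeks in greenhouse; damage 0 = none, 100 = no emergence or total kill of visible parts.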

The test system of the next series is Zea mays. In words: preemergence treatment in the greenhouse, % damage. Format: in vivo. The method, boiled down:
as §3

Series [1] relates to Brassica napus. As to the kind of experiment: preemergence treatment in the greenhouse, % damage. Format: in vivo. The method, boiled down: as §3
Series [2] has as its system Setaria spp. As to the kind of experiment: preemergence treatment in the greenhouse, % damage. Format: in vivo. The method, boiled down:
as §3

The test system of the next series is Cyp. diff. In words: preemergence treatment in the greenhouse, % damage. Format: in vivo. The method, boiled down:
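Sow shallow in sandy loam, spray actives (water vehicle) on soil at once for preemergence, irrigate, hood until rooting; or grow to 3–10 cm and spray unhooded for postemergence. Keep 4–6 weeks at 15–40 °C by species, then score damage 0–100.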

The subject of series [3] is Alopec. myosur. As to the kind of experiment: preemergence treatment in the greenhouse, % damage. Format: in vivo. In short, it runs like this: as §3
Another series deals with Bromus spp. As to the kind of experiment: preemergence treatment in the greenhouse, % damage. Format: in vivo. The method, boiled down: as §3
Series [4] concerns Matric. spp. In words: preemergence treatment in the greenhouse, % damage. Format: in vivo. In short, it runs like this: as §3
In series [5] the test system is Echin. c.g. In words: preemergence treatment in the greenhouse, % damage. Format: in vivo. The method, boiled down:
as §3

A further series has as its system Cyper. escul. As to the kind of experiment: postemergence application in the greenhouse, % damage. Format: in vivo, Cyperus esculentus.
Excerpt: as §1, §2

Series [6] concerns Chrys. seget. Described as above. Format: in vivo.
Excerpt: as §1, §2

Another series concerns Stell. med. The series is described as above. Format: in vivo.
Excerpt: as §1, §2

The next series concerns Avena fat. The series is described as above. The class given is in vivo.
Excerpt: as §1, §2

The test system of series [7] is Setaria spp. The description is as above. Format: in vivo.
Excerpt: as §1, §2

In series [8] the test system is Alopec. myosur. The series is described as above. The class given is in vivo.
Excerpt: as §1, §2

Series [9] concerns Matric. spp. The description is as above. The class given is in vivo.
Excerpt: as §1, §2

Another series relates to Glyc. max. As to the kind of experiment: preemergence application in the open, % damage. Format: in vivo, Glycine max. The procedure:
The experiments were carried out on small plots. The soil was a sandy loam having a pH of from 5 to 6 and containing from 1 to 1.5% humus. The treatment was preemergence, the active ingredients being applied immediately or at the latest 3 days after sowing. The crop plants were sown in rows. The weed flora was made up of the most widely varying species and was natural; the weed flora depended on the time of the year and in part on the crop (e.g., spring-germinating, summer-germinating). The substances were emulsified or suspended in water as the vehicle, and applied by means of a motor-driven plot spray mounted on a hitch. When no rain fell, the plots were watered to ensure germination and growth of the crop plants and weeds. All the experiments were run for several weeks. Over this period, assessments were made at certain intervals on the 0 to 100 scale.

Another series concerns Euph. gen. As to the kind of experiment: preemergence treatment in the greenhouse, % damage. Format: in vivo. The conditions noted are these: 0.25 kg/ha. In short, it runs like this: as §3
Series [10] has as its system Amar. retro. In words: preemergence treatment in the greenhouse, % damage. The conditions noted are these: one value printed for two rates (0.125 0.25 kg/ha). Format: in vivo. In short, it runs like this:
as §3

Series [11] has as its system Chrys. seget. As to the kind of experiment: preemergence treatment in the greenhouse, % damage. The conditions noted are these: 0.25 kg/ha. The class given is in vivo. In short, it runs like this:
as §3

In the next series the test system is Poa annua. In words: preemergence treatment in the greenhouse, % damage. Format: in vivo. The method, boiled down:
as §3

The subject of the next series is Sorgh. halep. In words: preemergence treatment in the greenhouse, % damage. Format: in vivo. The method, boiled down:
as §3

Series [12] relates to Amar. retro. As to the kind of experiment: preemergence application in the open, % damage. Format: in vivo. The method, boiled down: (§4)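 Damage on a 0 to 100 scale was rated at set intervals during several weeks after preemergence treatment of small field plots. Actives went on in water as emulsions or suspensions, immediately or up to 3 days after sowing, onto sandy loam of pH 5–6 holding 1–1.5% humus.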

In a further series the test system is Stellaria media. In words: preemergence application in the open, % damage. The conditions noted are these: 2.0 kg/ha. The class given is in vivo. The method, boiled down: as §4
In the next series the test system is Chenop. spp. As to the kind of experiment: preemergence application in the open, % damage. Format: in vivo. In short, it runs like this:
as §4

In series [13] the test system is Brassica napus. In words: preemergence application in the open, % damage. The class given is in vivo. Particulars: 2.0 kg/ha. The method, boiled down: as §4
The subject of the next series is Lamium spp. As to the kind of experiment: preemergence application in the open, % damage. The class given is in vivo. Particulars: 2.0 kg/ha. The method, boiled down: as §4
For the next series, the system named is Anth./Matric. As to the kind of experiment: preemergence application in the open, % damage. The class given is in vivo. The conditions noted are these: 2.0 kg/ha. In short, it runs like this:
as §4

For the next series, the system named is Galins. spp. In words: preemergence application in the open, % damage. Format: in vivo. The method, boiled down:
as §4

For series [14], the system named is Alopec. myosur. In words: preemergence application in the open, % damage. Format: in vivo. The conditions noted are these: 2.0 kg/ha. In short, it runs like this:
as §4

The subject of series [15] is Echin. c.g. As to the kind of experiment: preemergence application in the open, % damage. Format: in vivo. The method, boiled down: as §4

This note sets out measurements from US4593104A, “2-halo-N-(azole-1-yl-methyl)-substituted acetanilides” (BASF Aktiengesellschaft, priority 1976, dated 1986).

Turning to `COc1cc(C)n(CN(C(=O)CCl)c2c(C)cccc2C)n1`, the “% damage” value in the series with Arach. hypog. (0.5 kg/ha) is reported as 0%; in the series with Solanum nigrum (0.5 kg/ha), 85%; in the series on Zea mays (0.5 kg/ha) it was 20%; in the series on Brassica napus [1] (0.5 kg/ha), 5%; in the series on Setaria spp. [2] (0.5 kg/ha) it was 98%; in the series with Cyp. diff. (0.5 kg/ha), 100%. The “% damage” value with Alopec. myosur. [3] (0.5 kg/ha) was determined as 95%; in the series on Bromus spp. (0.5 kg/ha) it was 95%; in the series with Matric. spp. [4] (0.5 kg/ha) it was 95%; in the series with Echin. c.g. [5] (0.5 kg/ha), 90%.

Take `Cc1ncn(CN(C(=O)CCl)c2c(C)cccc2C)n1`: the “% damage” value was 0% in the series with Arach. hypog. (1.0 kg/ha); 100% in the series with Solanum nigrum (1.0 kg/ha); 5% with Brassica napus [1] (1.0 kg/ha); 100% in the series on Setaria spp. [2] (1.0 kg/ha); 100% in the series with Cyp. diff. (1.0 kg/ha); 97% in the series on Alopec. myosur. [3] (1.0 kg/ha). Further, the “% damage” value in the series with Bromus spp. (1.0 kg/ha) was 98%; in the series on Matric. spp. [4] (1.0 kg/ha) it was 92%; in the series with Echin. c.g. [5] (1.0 kg/ha) it was 100%.

Consider `Cc1cccc(C)c1N(Cn1ncnn1)C(=O)CCl`, for which the “% damage” value in the series with Arach. hypog. (2.0 kg/ha) was found to be 15%; in the series with Zea mays (2.0 kg/ha), 15%; in the series on Setaria spp. [2] (2.0 kg/ha), 95%; with Alopec. myosur. [3] (2.0 kg/ha) it was 98%; with Bromus spp. (2.0 kg/ha), 98%; in the series on Matric. spp. [4] (2.0 kg/ha) it was 100%. In the series with Echin. c.g. [5] (2.0 kg/ha), the “% damage” value was found to be 100%.

As to `Cc1cccc(C)c1N(Cn1cccn1)C(=O)CCl` [Compound 5], the “% damage” value in the series on Cyper. escul. (1.0 kg/ha) was 70%; with Cyper. escul. (2.0 kg/ha), 72%; in the series with Chrys. seget. [6] (1.0 kg/ha), 98%; in the series on Chrys. seget. [6] (2.0 kg/ha) it was 98%; in the series on Stell. med. (1.0 kg/ha) it was 95%; with Stell. med. (2.0 kg/ha), 98%. Also, the “% damage” value is listed as 90% in the series on Avena fat. (1.0 kg/ha); 92% with Avena fat. (2.0 kg/ha); 82% with Setaria spp. [7] (1.0 kg/ha); 85% in the series on Setaria spp. [7] (2.0 kg/ha); 80% with Alopec. myosur. [8] (1.0 kg/ha); 90% with Alopec. myosur. [8] (2.0 kg/ha). For the same molecule, the “% damage” value with Matric. spp. [9] (1.0 kg/ha) came out at 95%; with Matric. spp. [9] (2.0 kg/ha), 95%; in the series with Glyc. max (0,5 kg/ha) it was 0%; in the series with Glyc. max (1,0 kg/ha) it was 4%; in the series with Euph. gen. it was 100%; in the series with Amar. retro. [10], 100%. Further, the “% damage” value in the series with Chrys. seget. [11], in the series with Solanum nigrum (0.25 kg/ha), in the series with Poa annua (0.125 kg/ha), in the series with Poa annua (0.25 kg/ha), with Cyp. diff. (0.125 kg/ha) and with Cyp. diff. (0.25 kg/ha) was 100% in each case. Further, the “% damage” value is 90% in the series on Bromus spp. (0.125 kg/ha); 95% with Bromus spp. (0.25 kg/ha); 95% in the series on Sorgh. halep. (0.125 kg/ha); 95% in the series on Sorgh. halep. (0.25 kg/ha); 100% with Amar. retro. [12] (0,5 kg/ha); 100% in the series on Amar. retro. [12] (1,0 kg/ha). The “% damage” value in the series on Stellaria media is recorded as 100%; in the series with Chenop. spp. (0,5 kg/ha), 69%; with Chenop. spp. (1,0 kg/ha), 85%; with Brassica napus [13], 7.5%; with Lamium spp. it was 100%; with Anth./Matric. it was 100%. For the same molecule, the “% damage” value came to 91% in the series on Galins. spp. (0,5 kg/ha); 100% in the series on Galins. spp. (1,0 kg/ha); 95% in the series on Alopec. myosur. [14]; 100% in the series on Echin. c.g. [15] (0,5 kg/ha); 100% in the series with Echin. c.g. [15] (1,0 kg/ha).
